In patent US7041486B1, “Enzyme having decolorizing activity and method for decolorizing dyes by using the same” (Meiji Seika Kaisha Ltd., priority 1999, dated 2006):
“Also recorded” adds a separate entry of the source. Read-outs that look alike come from different tables or passages of the source.

Assays:
DyP [1] = test: Oxidation of model compounds by DyP (absorbance); format: biochemical, Geotrichum candidum Dec 1; settings: for Oxidation rate: 2.79 nM DyP, 0.2 mM hydrogen peroxide, 25 mM citrate buffer, pH and initial concentration (mM) as in columns c2, c3, 470 nm or 465 nm; for Degradation by DyP (in words): model compounds of Table 2
Experimental: As the model compounds, additionally, use was made of 2,6-dimethoxyphenol, guaiacol and veratryl alcohol.
As to 2,6-dimethoxyphenol used as a model compound, alternatively, absorbance at 470 nm was calorimetrically measured, which emerged via oxidation.
That is to say, a mixture solution of 2.79 nM DyP and 0.2 mM 2,6-dimethoxyphenol was reacted with 25 mM citrate buffer (pH 4.5) containing 0.2 mM hydrogen peroxide.
As to guaiacol, 1 mM guaiacol was used in place of 0.2 mM 2,6-dimethoxyphenol, for absorbance measurement at 465 nm.

DyP [2] = test: Assay of dye-degrading (decolorizing) activity of purified DyP; format: biochemical, Geotrichum candidum Dec 1; settings: dyes of Table 1
Experimental: The dye-degrading spectrum of the purified DyP was examined for nine types of dyes and three model compounds. The activity of the purified DyP to degrade these dyes or model compounds was assayed by measuring the degradation rates.
As the dyes, use was made of Reactive blue 5, 19 and 114; AQ-1 and AQ-2; Reactive black 5, Reactive red 33, Reactive yellow 2, and Reactive blue 182.
The dye-degrading activity was measured as follows.
0.2 to 0.4 mM aqueous hydrogen peroxide was added to a mixture solution of 3 mL of 25 mM citrate buffer (adjusted to the optimum pH for the degradation of each of the dyes) containing each dye at a fixed […] (30 to 120 ppm) and 1 mL of 1.86 nM DyP solution, to initiate the enzyme reaction. Reaction was performed at 30° C. for a fixed period of time, to assay the reaction rate.
1 U of the dye-degrading activity was defined as the activity to decolorize 1 μmole Reactive blue 5 or AQ-2 for one minute.

DyP [3] = format: biochemical, Geotrichum candidum Dec 1; settings: for Specific activity (%): 100 ppm Reactive blue 5, no addition = 100
Source text: […], zinc, copper (divalent), potassium, iron (divalent) and sodium were concurrently present in a reaction solution comprising DyP and 100 ppm Reactive blue 5, so as to examine the effects of these metal ions on the relative activity of the DyP enzyme.

[4] = Temperature stability of peroxidase (remaining activity after storage); format: physicochemical; settings: 25 mM citrate buffer
Experimental: After the inventive dye-degrading enzyme DyP was stored at a fixed temperature for a fixed period of time, the ratio of the remaining activity was subsequently evaluated. Specifically, a solution of the dye-degrading enzyme DyP in 25 mM citrate buffer was stored at 30° C. or 40° C. for 14 days.
So as to compare the temperature stability with those of other peroxidases, solutions of individual enzymes in 25 mM citrate buffer were stored at 60° C. for 3 hours, by using a commercially available horse-radish peroxidase (manufactured by Wako Chemical Co., Ltd.; sometimes abbreviated as HRP hereinafter) as the control. Subsequently, the remaining enzyme activities were compared to each other.

Isoelectric focusing = format: physicochemical; settings: FIG. 2
Experimental: Then, the isoelectric point of the inventive enzyme was measured. The isoelectric point was measured by isoelectric focusing.
For measurement of isoelectric focusing, a low-pI calibration kit of Multiphor II 2-D for pH 2.5 to pH 6.5, manufactured by Pharmacia, Co. was used. Consequently, the isoelectric point of DyP was assayed as 3.8.

Molecule: COc1cccc(OC)c1O [2,6-Dimethoxyphenol, 2,6-dimethoxyphenol]
- Oxidation rate (DyP [1]): 0.29 ΔOD/min
- Degradation by DyP (in words) (DyP [1]): could efficiently be degraded

Molecule: CNc1cc(S(=O)(=O)[O-])c(N)c2c1C(=O)c1ccccc1C2=O.[Na+] [AQ-2, 1-amino-4-methylamino-2-sodium-anthraquinone sulfonate]
- Degradation by DyP (in words) (DyP [2]): excellent degradation activity

Molecule: [Ca+2] [Ca^++, calcium]
- Specific activity (%) (DyP [3]; metal ion 5 mM): 81%

Molecule: [Cu+2] [Cu^++, copper (divalent)]
- Specific activity (%) (DyP [3]; metal ion 5 mM): 75%

Molecule: [Fe+2] [Fe^++, iron (divalent)]
- Inhibition of DyP activity (DyP [3]; ion concurrently present at 0.2 mM): 50%
- Specific activity (%) (DyP [3]; metal ion 0.2 mM): 50%

Molecule: COc1ccccc1O [Guaiacol, guaiacol]
- Oxidation rate (DyP [1]): 0.29 ΔOD/min
- Degradation by DyP (in words) (DyP [1]): could efficiently be degraded

Molecule: [K+] [K^+, potassium]
- Specific activity (%) (DyP [3]; metal ion 5 mM): 81%

Molecule: [Na+] [Na^+, sodium]
- Specific activity (%) (DyP [3]; metal ion 5 mM): 81%

Molecule: Nc1c(S(=O)(=O)[O-])cc(Nc2ccc(S(=O)(=O)[O-])c(Nc3nc(Cl)nc(Nc4cccc(S(=O)(=O)[O-])c4)n3)c2)c2c1C(=O)c1ccccc1C2=O.[Na+].[Na+].[Na+] [Reactive blue 5]
- Degradation by DyP (in words) (DyP [2]): excellent degradation activity

Molecule: Nc1c(S(=O)(=O)[O-])cc(Nc2cccc(S(=O)(=O)CCOS(=O)(=O)[O-])c2)c2c1C(=O)c1ccccc1C2=O.[Na+].[Na+] [Reactive blue 19]
- Degradation by DyP (in words) (DyP [2]): excellent degradation activity

Molecule: COc1ccc(CO)cc1OC [Veratryl alcohol, veratryl alcohol]
- Degradation by DyP (in words) (DyP [1]): could never degrade; also recorded: no reaction

Molecule: [Zn+2] [Zn^++, zinc]
- Specific activity (%) (DyP [3]; metal ion 5 mM): 69%

Molecule: Reactive blue 182
- Degradation by DyP (in words) (DyP [2]): efficiently degraded

B1: DyP: peroxidase derived from Geotrichum candidum Dec 1 strain (FERM BP-7033), amino acid sequence SEQ ID NO. 7 (protein, listed as Geotrichum candidum)
chain: MDLSLFVVSVAVLVGSSSHVNAAKLGARQTRTTPLLTNFPGQAPLPTLTQHTTESGANDTILPLNNIQGDILVGMKKQKERFVFFQVNDATSFKTALKTYVPQRITSAAILISDPSQQPLAFVNLGFSNTGLQALGITDDLGDAQFPDGQFADAANLGDDLSQWVAPFTGTTIHGVFLIGSDQDDFLDQFTDDISSTFGSSITQVQALSGSARPGDQAGHEHFGFLDGISQPSVTGWETTVFPGQAVVPPGIILTGRDGDTGTRPSWALDGSFMAFRHFQQKVPEFNAYTLANAIPANSAGNLTQQEGAEFLGARMFGRWKSGAPIDLAPTADDPALGADPQRNNNFDYSDTLTDETRCPFGAHVRKTNPRQDLGGPVDTFHAMRSSIPYGPETSDAELASGVTAQDRGLLFVEYQSIIGNGFRFQQINWANNANFPFSKPITPGIEPIIGQTTPRTVGGLDPLNQNETFTVPLFVIPKGGEYFFLPSISALTATIAA
- Remaining enzyme activity ([4]; stored at 30° C. for 14 days): 63%
- Remaining enzyme activity ([4]; stored at 40° C. for 14 days): 41%
- Remaining enzyme activity ([4]; stored at 60° C. for 3 hours): 65%
- Isoelectric point (pI) (Isoelectric focusing): 3.8
